Assay results from patent publication US12545685B2 (Daiichi Sankyo Company, Limited, priority 2011, dated 2026).

Molecular target: T1, Mdm2/p53 binding (GST-Mdm2 / His-p53) (Homo sapiens, UniProt Q00987, L33E)
T1 construct: Mdm2 partial protein having Mdm2 amino acids at positions 25 to 108
Test: Mdm2/p53 binding assay (HTRF, His-p53 and GST-Mdm2)
Details: His-p53 (aa 1-132) and GST-Mdm2 (aa 25-108, L33E) 6.25 nM each; 25°C, 1 hour; values given as ranges
Method in brief: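 Binding was detected by HTRF (ex 320 nm, em 620/665 nm) after 1 h at 25 °C, using Eu-cryptate anti-GST and XL665 anti-His antibodies. The protein pair was GST-Mdm2 (residues 25–108, L33E) with His-p53 (residues 1–132), each 6.25 nM in the protein dilution. T/C used no-compound control and no-p53 background, and IC50 came from sigmoid fitting.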

T1 sequence (Q00987 25-108 L33E): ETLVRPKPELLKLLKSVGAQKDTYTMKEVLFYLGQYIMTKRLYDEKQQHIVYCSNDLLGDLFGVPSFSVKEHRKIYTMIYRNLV

SMILES	IC50 [nM]
O=C(NC1CCOCC1)[C@@H]1CC[C@@H](NC(=O)[C@@H]2NC3(CC(CF)(CF)C3)[C@@]3(C(=O)Nc4cc(Cl)ccc43)[C@H]2c2cccc(Cl)c2F)CO1 [Example 137, (3′R, 4′S,5′R)-6″-chloro-4′-(3-chloro-2-fluorophenyl)-3,3-bis(fluoromethyl)-2″-oxo-N-[(3R,6S)-6-(tetrahydro-2H-pyran-4-ylcarbamoyl)tetrahydro-2H-pyran-3-yl]-1″,2″-dihydrodispiro[cyclobutane-1,2′-pyrrolidine-3′,3″-indole]-5′-carboxamide]	50 to 100
CCNC(=O)[C@@H]1CC[C@@H](NC(=O)[C@@H]2NC3(CC(CF)(CF)C3)[C@@]3(C(=O)Nc4cc(Cl)ccc43)[C@H]2c2cccc(Cl)c2F)CO1 [Example 141]	1 to 50
COCCNC(=O)[C@@H]1CC[C@@H](NC(=O)[C@@H]2NC3(CC(CF)(CF)C3)[C@@]3(C(=O)Nc4cc(Cl)ccc43)[C@H]2c2cccc(Cl)c2F)CO1 [Example 142, (3′R, 4′S,5′R)-6″-chloro-4′-(3-chloro-2-fluorophenyl)-3,3-bis(fluoromethyl)-N-{(3R,6S)-6-[(2-methoxyethyl)carbamoyl]tetrahydro-2H-pyran-3-yl}-2″-oxo-1″,2″-dihydrodispiro[cyclobutane-1,2′-pyrrolidine-3′,3″-indole]-5′-carboxamide]	1 to 50
COC[C@@H]1CC[C@@H](NC(=O)[C@@H]2NC3(CC(CF)(CF)C3)[C@@]3(C(=O)Nc4cc(Cl)ccc43)[C@H]2c2cccc(Cl)c2F)CO1 [Example 143, (3′R, 4′S,5′R)-6″-chloro-A′-(3-chloro-2-fluorophenyl)-3,3-bis(fluoromethyl)-N-[(3R,6S)-6-(methoxymethyl)tetrahydro-2H-pyran-3-yl]-2″-oxo-1″,2″-dihydrodispiro[cyclobutane-1,2′-pyrrolidine-3′,3″-indole]-5′-carboxamide]	50 to 100
CN(C)C(=O)[C@H]1C[C@H](NC(=O)[C@@H]2NC3(CC(CF)(CF)C3)[C@@]3(C(=O)Nc4cc(Cl)ccc43)[C@H]2c2cccc(Cl)c2F)C1 [Example 145, (3′R, 4′S,5′R)-6″-chloro-4′-(3-chloro-2-fluorophenyl)-N-[trans-3-(dimethylcarbamoyl)cyclobutyl]-3,3-bis(fluoromethyl)-2″-oxo-1″,2″-dihydrodispiro[cyclobutane-1,2′-pyrrolidine-3′,3″-indole]-5′-carboxamide]	50 to 100
CN(C)C(=O)[C@H]1CC[C@H](NC(=O)[C@@H]2NC3(CC(CF)(CF)C3)[C@@]3(C(=O)Nc4cc(Cl)ccc43)[C@H]2c2cccc(Cl)c2F)CC1 [Example 148, (3′R, 4′S,5′R)-6″-chloro-4′-(3-chloro-2-fluorophenyl)-N-[trans-4-(dimethylcarbamoyl)cyclohexyl]-3,3-bis(fluoromethyl)-2″-oxo-1″,2″-dihydrodispiro[cyclobutane-1,2′-pyrrolidine-3′,3″-indole]-5′-carboxamide]	1 to 50
CN(C)C(=O)C[C@@H]1CC[C@@H](NC(=O)[C@@H]2NC3(CCC(C)(C)CC3)[C@@]3(C(=O)Nc4cc(Cl)ccc43)[C@H]2c2ccnc(Cl)c2F)CO1 [Example 152, (3′R, 4′S,5′R)-6″-chloro-4′-(2-chloro-3-fluoropyridin-4-yl)-N-{(3R,6S)-6-[2-(dimethylamino)-2-oxoethyl]tetrahydro-2H-pyran-3-yl}-4,4-dimethyl-2″-oxo-1″,2″-dihydrodispiro[cyclohexane-1,2′-pyrrolidine-3′,3″-indole]-5′-carboxamide]	1 to 50
CN(C)C(=O)C[C@@H]1CC[C@@H](NC(=O)[C@@H]2NC3(CC(CF)(CF)C3)[C@@]3(C(=O)Nc4cc(Cl)ccc43)[C@H]2c2cccc(Cl)c2F)CO1 [Example 153, (3′R, 4′S,5′R)-6″-chloro-4′-(3-chloro-2-fluorophenyl)-N-{(3R,6S)-6-[2-(dimethylamino)-2-oxoethyl]tetrahydro-2H-pyran-3-yl}-3,3-bis(fluoromethyl)-2″-oxo-1″,2″-dihydrodispiro[cyclobutane-1,2′-pyrrolidine-3′,3′-indole]-5′-carboxamide]	1 to 50
NC(=O)[C@@H]1CC[C@@H](NC(=O)[C@@H]2NC3(CC(CF)(CF)C3)[C@@]3(C(=O)Nc4cc(Cl)ccc43)[C@H]2c2ccnc(Cl)c2F)CO1 [Example 158, (3′R, 4′S,5′R)—N-[(3R,6S)-6-carbamoyltetrahydro-2H-pyran-3-yl]-6″-chloro-4′-(2-chloro-3-fluoropyridin-4-yl)-3,3-bis(fluoromethyl)-2″-oxo-1″,2″-dihydrodispiro[cyclobutane-1,2′-pyrrolidine-3′,3″-indole]-5′-carboxamide]	1 to 50

Other lines, results leading:

IC50 [nM]	SMILES
1 to 50	O=C(N[C@@H]1CC[C@@H](c2nnco2)OC1)[C@@H]1NC2(CC(CF)(CF)C2)[C@@]2(C(=O)Nc3cc(Cl)ccc32)[C@H]1c1cccc(Cl)c1F [Example 136, (3′R, 4′S,5′R)-6″-chloro-4′-(3-chloro-2-fluorophenyl)-3,3-bis(fluoromethyl)-N-[(3R,6S)-6-(1,3,4-oxadiazol-2-yl)tetrahydro-2H-pyran-3-yl]-2″-oxo-1″,2″-dihydrodispiro[cyclobutane-1,2′-pyrrolidine-3′,3″-indole]-5′-carboxamide]
50 to 100	O=C(NCCF)[C@@H]1CC[C@@H](NC(=O)[C@@H]2NC3(CC(CF)(CF)C3)[C@@]3(C(=O)Nc4cc(Cl)ccc43)[C@H]2c2cccc(Cl)c2F)CO1 [Example 138, (3′R, 4′S,5′R)-6″-chloro-4′-(3-chloro-2-fluorophenyl)-N-{(3R,6S)-6-[(2-fluoroethyl)carbamoyl]tetrahydro-2H-pyran-3-yl}-3,3-bis(fluoromethyl)-2″-oxo-1″,2″-dihydrodispiro[cyclobutane-1,2′-pyrrolidine-3′,3″-indole]-5′-carboxamide]
1 to 50	COCCN(C)C(=O)[C@@H]1CC[C@@H](NC(=O)[C@@H]2NC3(CC(CF)(CF)C3)[C@@]3(C(=O)Nc4cc(Cl)ccc43)[C@H]2c2cccc(Cl)c2F)CO1 [Example 139, (3′R, 4′S,5′R)-6″-chloro-4′-(3-chloro-2-fluorophenyl)-3,3-bis(fluoromethyl)-N-[(3R,6S)-6-[(2-methoxyethyl)(methyl)carbamoyl]tetrahydro-2H-pyran-3-yl]-2″-oxo-1″,2″-dihydrodispiro[cyclobutane-1,2′-pyrrolidine-3′,3″-indole]-5′-carboxamide]
50 to 100	CN(C)C(=O)[C@@H]1CC[C@@H](NC(=O)[C@@H]2NC3(CCC(C)(C)CC3)[C@@]3(C(=O)Nc4cc(Cl)ccc43)[C@H]2c2ccnc(Cl)n2)CO1 [Example 140, (3′R, 4′R, 5′R)-6″-chloro-4′-(2-chloropyrimidin-4-yl)-N-[(3R,6S)-6-(dimethylcarbamoyl)tetrahydro-2H-pyran-3-yl]-4,4-dimethyl-2″-oxo-1″,2″-dihydrodispiro[cyclohexane-1,2′=pyrrolidine-3′,3″-indole]-5′-carboxamide]
50 to 100	NC(=O)C[C@@H]1CC[C@@H](NC(=O)[C@@H]2NC3(CC(CF)(CF)C3)[C@@]3(C(=O)Nc4cc(Cl)ccc43)[C@H]2c2cccc(Cl)c2F)CO1 [Example 149, (3′R, 4′S,5′R)—N-[(3R,6S)-6-(2-amino-2-oxoethyl)tetrahydro-2H-pyran-3-yl]-6″-chloro-4′-(3-chloro-2-fluorophenyl)-3,3-bis(fluoromethyl)-2″-oxo-1″,2″-dihydrodispiro[cyclobutane-1,2′-pyrrolidine-3′,3″-indole]-5′-carboxamide]
1 to 50	CNC(=O)C[C@@H]1CC[C@@H](NC(=O)[C@@H]2NC3(CCC(C)(C)CC3)[C@@]3(C(=O)Nc4cc(Cl)ccc43)[C@H]2c2ccnc(Cl)c2F)CO1 [Example 150, (3′R, 4′S,5′R)-6″-chloro-4′-(2-chloro-3-fluoropyridin-4-yl)-4,4-dimethyl-N-{(3R,6S)-6-[2-(methylamino)-2-oxoethyl]tetrahydro-2H-pyran-3-yl}-2″-oxo-1″,2″-dihydrodispiro[cyclohexane-1,2′-pyrrolidine-3′,3″-indole]-5′-carboxamide]
1 to 50	CNC(=O)C[C@@H]1CC[C@@H](NC(=O)[C@@H]2NC3(CC(CF)(CF)C3)[C@@]3(C(=O)Nc4cc(Cl)ccc43)[C@H]2c2cccc(Cl)c2F)CO1 [Example 151, (3′R, 4′S,5′R)-6″-chloro-4′-(3-chloro-2-fluorophenyl)-3,3-bis(fluoromethyl)-N-{(3R,6S)-6-[2-(methylamino)-2-oxoethyl]tetrahydro-2H-pyran-3-yl}=2″-oxo-1″,2″-dihydrodispiro[cyclobutane-1,2′-pyrrolidine-3′,3′-indole]-5′-carboxamide]
50 to 100	CC1(C)CCC2(CC1)N[C@@H](C(=O)N[C@H]1CC[C@H](c3nncs3)CC1)[C@H](c1ccnc(Cl)c1F)[C@]21C(=O)Nc2cc(Cl)ccc21 [Example 155, (3′R, 4′S,5′R)-6″-chloro-4′-(2-chloro-3-fluoropyridin-4-yl)-4,4-dimethyl-2″-oxo-N-[trans-4-(1,3,4-thiadiazol-2-yl)cyclohexyl]-1″,2″-dihydrodispiro[cyclohexane-1,2′-pyrrolidine-3′,3″-indole]-5′-carboxamide]
50 to 100	COCc1nnc([C@H]2CC[C@H](NC(=O)[C@@H]3NC4(CCC(C)(C)CC4)[C@@]4(C(=O)Nc5cc(Cl)ccc54)[C@H]3c3ccnc(Cl)c3F)CC2)o1 [Example 159]
50 to 100	O=C(N[C@@H]1CC[C@@H](CO)OC1)[C@@H]1NC2(CC(CF)(CF)C2)[C@@]2(C(=O)Nc3cc(Cl)c(F)cc32)[C@H]1c1ccnc(Cl)c1F [Example 163, (3′R, 4′S,5′R)-6″-chloro-4′-(2-chloro-3-fluoropyridin-4-yl)-5″-fluoro-3,3-bis(fluoromethyl)-N-[(3R,6S)-6-(hydroxymethyl)tetrahydro-2H-pyran-3-yl]-2″-oxo-1″,2″-dihydrodispiro[cyclobutane-1,2′-pyrrolidine-3′,3″-indole]-5′-carboxamide]
